Read-outs that look alike come from different tables or passages of the source.
Legend:
αSYN fibrils [1] = biological target: αSYN fibrils; design: method as in PMID 33819025; conditions: fluorescence titration; cited from earlier work
αSYN fibrils [2] = biological target: T1, αSYN fibrils (Homo sapiens, UniProt P37840); assay: [^3H]PiB competition binding assay on αSYN fibrils
T1 construct: cloning of the DNA construct encoding full-length αSYN into the pET-22b vector; made in house; host or cells: Escherichia coli BL21
Procedure: Following the cloning of the DNA construct encoding full-length αSYN into the pET-22b vector and its transformation into BL21 cells, the expression of human αSYN from a prokaryotic host was induced overnight in Escherichia coli at 20 °C with 0.5 mM IPTG. The cells were harvested by centrifugation, resuspended in 20 mM Tris-HCl pH 7.6, 25 mM NaCl and 1× complete protease inhibitor (Roche, Basel, Switzerland), and lysed by sonication. […] Anion exchange chromatography (HiTrap Q, GE Healthcare, Chicago, Illinois) was used to trap the produced αSYN, which was eluted with NaCl 0.1 M over 20 column volumes. Fractions containing αSYN were concentrated and further purified through a Superdex 75 SEC column equilibrated with PBS. […] A 4 mg/mL solution of αSYN in 20 mM K3PO4 pH 9.1 was placed in an orbital shaker at 37 °C, 1000 rpm for 5 days to prepare P91s. The assemblies were either sonicated with cycles of 20 s on and 10 s off at 50% amplitude (Q800R3, Qsonica) for a total of 10 min or directly aliquoted in volumes of 10 μL each stored at −80 °C until use. […] The final products were aliquoted, frozen on dry ice, and stored at −80 °C until use.
Concentrations of αSYN and Aβ1-42 fibrils were as described above.
Plates were incubated on a shaker (MaxQ 6000, Thermo Fisher Scientific, Inc., Marietta, OH) at 50 rpm for 2 h at 37 °C, covered by removable sealing tapes (PerkinElmer, Waltham, MA). Vacuum filtration and read-out were performed as previously reported.[17] […] Data points were fitted using nonlinear regression analysis in GraphPad Prism (GraphPad Software, Inc., Version 8.4.0, La Jolla).

[3] = test system: αSYN pathology in human brain slices (MSA, PD, AD, control); assay: In vitro autoradiography on human brain slices; assay type: binding; conditions: 10 nM tracer, AD sample vs frontal cortex control
Procedure: Post-mortem human brain slices (10 μm thickness) were obtained from the subject cases and were analyzed by the Neurobiobank München (NBM, Munich, Germany), where tissues were collected on the basis of written informed consent according to the guidelines of the ethics committee of the Ludwig Maximilians University of Munich, Germany (# 345-13). The use of brain tissue samples in this study was approved by the ethics committee of the Faculty of Medicine at the University of Tuebingen (Ethics approval number: 813/2018BO2). Table S4 (Supporting Information) summarizes the information of the subjects from which samples were obtained and used in the experiment.
For autoradiography, frozen brain slices were thawed for 1 h before preincubation in bovine serum albumin (BSA) buffer for 25 min at room temperature. To determine total binding (TB), brain slices were incubated with the tracer (10 nM [^18F]PFSB, 10 nM [^18F]MFSB). Incubation of consecutive slices with the corresponding nonradioactive compounds (10 μM PFSB, 10 μM MFSB) was performed to determine nonspecific binding (NSB). The nonradioactive compounds were prepared by dissolving in DMSO to 10 mM, which yielded a DMSO concentration of ≤0.1% in the final solution. Incubation was carried out for 1 hour at room temperature with subsequent washing in cold BSA buffer (3 × 10 min) followed by three dippings in cold deionized water. After drying under an IR lamp, brain slices were exposed to a storage phosphor screen (Molecular Dynamics, Caesarea, Israel) for 18 h, which was then scanned in a phosphor imager (STORM 840, Molecular Dynamics, Sunnyvale, CA).
Quantitative data analysis was performed by drawing four regions of interest (ROIs) in relevant areas of the slice and one ROI next to it for background subtraction (Figures S7 and S8; ImageJ 1.8.0_172, National Institute of Health, Bethesda, MD).[28] Specific binding (SB) is obtained by subtracting NSB from TB. The SB disease/SB control ratio was calculated by dividing by the SB in diseased tissues with the respective SB in control tissues.

[4] = In vivo dynamic PET/MR imaging in healthy wild-type mice; design: species or system C57BL/6J mice
Procedure: The animal experiments were performed in compliance with the European directives on the protection and use of laboratory animals (Council Directive 2010/63/UE) and the German animal welfare act with approval from the local authorities (Regierungspräsidium Tuebingen, R3/19G). Healthy wild-type female C57BL/6J mice (20.3 ± 0.9 g; 9 weeks old) purchased from Charles River Laboratories (Sulzbach, Germany) were maintained in our vivarium on a 12:12 hour light–dark cycle, and were kept at a temperature of 22 °C with 40–60% humidity and free access to a standard diet and tap water.
The mice (n = 3) were anesthetized with 1.5% isoflurane evaporated in 100% oxygen at a flow rate of 0.8 L/min. A body temperature of 37 °C was maintained using a feedback temperature control unit. PET imaging studies were performed on Inveon dedicated microPET system (Inveon D-PET, Siemens, Knoxville, TN). Five seconds after the start of PET acquisition, the mice were injected intravenously with 9.9 ± 0.6 MBq of [^18F]MFSB (Am = 46.2 ± 2.5 GBq/μmol at the time of injection). The 1 h dynamic acquisitions were divided into 39 time frames (12 × 5 s, 6 × 10 s, 6 × 30 s, 5 × 60 s, and 10 × 300 s). A 13-min transmission measurement with a cobalt-57 point source was performed for attenuation correction. Subsequently, an anatomical MR scan with a 7 Tesla MR scanner (ClinScan, Bruker BioSpin MRI GmbH, Ettlingen, Germany) using a rat whole-body volume coil and the Paravision software (v6.0.1, Bruker, Ettlingen, Germany) using a T2-weighted Turbo-RARE MRI sequence.
The PET image was reconstructed via the OSEM3D/SP-MAP reconstruction algorithm and coregistered to the whole-body MRI scan. Volumes of interest (VOIs) were hand-drawn for the relevant organs based on the MR anatomy in PMOD (PMOD Technologies, Faellanden, Switzerland, Version 4.2) and VOIs at different regions in the mouse brain were extracted using the atlas provided by PMOD to calculate the respective time–activity curves (TACs). Standardized uptake values (SUVs) were calculated as a ratio of the detected activity with injected activity and weight (SUV = (TAC (kBq/cc)/inj. activity (kBq)) × weight (g)).

[5] = mice n = 3, i.v., 60 min dynamic PET

CN1CCN(c2ccc(C=Cc3sc4ccccc4[n+]3C)cc2)CC1 [RB2, 3-Methyl-2-(4-(4-methylpiperazin-1-yl)styryl)benzo[d]thiazol-3-ium Iodide, reference compound]
Kd (αSYN fibrils [1]): 4.4 ± 0.5 µM
Ki (αSYN fibrils [2]; Ki-RB2, αSYN [^3H]PiB competition): 333 µM
Ki (αSYN fibrils [2]; methylated compounds, Table 2, two values in a cell = single determinations, read-out: Ki): > 0.4 µM

[18F]c1ccc2nc(/C=C/c3ccc(N4CCOCC4)cc3)sc2c1 [[^18F]MFSB]
AD/frontal cortex SB ratio [3]: remained favorable
SUV, TAC peak value, blood [4, 5]: 6.94 ± 0.71
SUV, TAC peak value, brain [4, 5]: 1.79 ± 0.02
SUV, TAC peak value, kidney [4, 5]: 2.70 ± 0.27
SUV, TAC peak value, liver [4, 5]: 5.00 ± 0.35
SUV, TAC peak value, lung [4, 5]: 4.43 ± 0.33
SUV, TAC peak value, bone ([4]; mice n = 3, i.v., at 60 min): 1.52 ± 0.20
SUV peak in the cerebellum ([4]; mice, PET): up to 1.76
SUV peak in the frontal cortex ([4]; mice, PET): up to 1.58
SUVbrain/SUVblood ([4]; mice, PET): 2.7
Time to peak, bone ([4]; mice, PET TAC): 60 min
Time to peak, brain ([4]; mice, PET TAC): 25 min
Time to peak, kidney ([4]; mice, PET TAC): 110 s
Time to peak, liver ([4]; mice, PET TAC): 90 s
Time to peak, lung ([4]; mice, PET TAC): 15 s
AUC, brain ([4]; mice, PET TAC over 60 min): 98.13 ± 1.30
AUC, kidney ([4]; mice, PET TAC over 60 min): 102.27 ± 1.33
AUC, liver ([4]; mice, PET TAC over 60 min): 188.40 ± 6.15
AUC, lung ([4]; mice, PET TAC over 60 min): 51.22 ± 3.94
